Common to all, as to experiment: Differential Scanning Fluorimetry (DSF) Tm shift
Holding throughout (assay type): binding

One experiment deals with T1, DMPK Catalytic Domain (Homo sapiens, UniProt Q09013).
T1 construct: For all of them, we expressed and purified the catalytic domain separately; His-tag; made in house; host or cells: Escherichia coli
T1 sequence (Q09013 71-339 limits assumed): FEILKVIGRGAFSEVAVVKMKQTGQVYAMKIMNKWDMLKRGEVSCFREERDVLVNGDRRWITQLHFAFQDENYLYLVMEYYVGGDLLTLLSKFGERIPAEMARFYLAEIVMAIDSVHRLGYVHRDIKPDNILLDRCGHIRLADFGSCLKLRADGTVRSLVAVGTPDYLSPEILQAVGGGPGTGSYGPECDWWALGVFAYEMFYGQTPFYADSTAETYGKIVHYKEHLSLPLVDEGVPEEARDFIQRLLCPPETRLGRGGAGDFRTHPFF
Conditions: 2 µM protein, 10 µM inhibitor, average of 3 experiments, each in duplicate.

For experiment [1], the target named is T2, STK3 Catalytic domain+SARAH (Homo sapiens, UniProt Q13188).
T2 construct: for 8, we also made a longer version containing one or more additional domains; His-tag; made in house; host or cells: Escherichia coli
T2 sequence (Q13188 1-491): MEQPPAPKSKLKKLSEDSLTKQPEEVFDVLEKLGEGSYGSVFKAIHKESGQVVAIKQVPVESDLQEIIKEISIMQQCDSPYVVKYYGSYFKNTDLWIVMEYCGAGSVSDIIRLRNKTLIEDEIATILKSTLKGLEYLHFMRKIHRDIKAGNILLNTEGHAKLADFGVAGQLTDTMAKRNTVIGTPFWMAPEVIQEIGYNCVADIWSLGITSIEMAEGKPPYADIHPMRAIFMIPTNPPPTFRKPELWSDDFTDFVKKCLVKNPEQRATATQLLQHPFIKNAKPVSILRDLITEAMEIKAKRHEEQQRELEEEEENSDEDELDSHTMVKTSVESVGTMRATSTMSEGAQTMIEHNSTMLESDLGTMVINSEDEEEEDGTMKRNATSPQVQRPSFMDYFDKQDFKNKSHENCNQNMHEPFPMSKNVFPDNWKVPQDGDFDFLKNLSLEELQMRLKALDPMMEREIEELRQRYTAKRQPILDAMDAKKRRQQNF
The note with it: 2 µM protein, 10 µM inhibitor, average of 3 experiments, each in duplicate.

In another experiment the target is SRC Catalytic Domain (Homo sapiens, UniProt P12931). More on the design: For all of them, we expressed and purified the catalytic domain separately; His-tag; made in house; host or cells: Escherichia coli. The note with it: 2 µM protein, 10 µM inhibitor, average of 3 experiments, each in duplicate.
A further experiment addresses T3, CDK2 + Cyclin A (Homo sapiens, UniProt P24941).
T3 construct: CDK2 (P24941); 1–299; His-tag; made in house; host or cells: Escherichia coli
Conditions: CDK2 + Cyclin A; 2 µM protein, 10 µM inhibitor; average of 3 experiments, each in duplicate.

The next experiment addresses T4, PAK7 Catalytic Domain (Homo sapiens, UniProt Q9P286).
T4 construct: For all of them, we expressed and purified the catalytic domain separately; His-tag; made in house; host or cells: Escherichia coli
Conditions: 2 µM protein, 10 µM inhibitor, average of 3 experiments, each in duplicate.

Another experiment concerns the target T5, FES Catalytic Domain (Homo sapiens, UniProt P07332).
T5 construct: For all of them, we expressed and purified the catalytic domain separately; His-tag; made in house; host or cells: Escherichia coli
Conditions: 2 µM protein, 10 µM inhibitor, average of 3 experiments, each in duplicate.

A further experiment concerns the target T6, CDK2 + Cyclin E (Homo sapiens, UniProt P24941).
T6 construct: CDK2 (P24941); 1–299; His-tag; made in house; host or cells: Escherichia coli
Conditions: CDK2 + Cyclin E; 2 µM protein, 10 µM inhibitor; average of 3 experiments, each in duplicate.

The target in a further experiment is T7, FAK2 Catalytic Domain (Homo sapiens, UniProt Q14289).
T7 construct: For all of them, we expressed and purified the catalytic domain separately; His-tag; made in house; host or cells: Escherichia coli
T7 sequence (Q14289 425-683 limits assumed): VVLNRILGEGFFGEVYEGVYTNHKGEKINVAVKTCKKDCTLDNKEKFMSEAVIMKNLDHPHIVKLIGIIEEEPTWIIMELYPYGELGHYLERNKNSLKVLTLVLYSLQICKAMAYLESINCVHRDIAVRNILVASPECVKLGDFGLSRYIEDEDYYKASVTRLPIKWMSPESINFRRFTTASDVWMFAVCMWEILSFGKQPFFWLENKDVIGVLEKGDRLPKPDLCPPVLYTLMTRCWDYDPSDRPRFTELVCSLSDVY
The note with it: 2 µM protein, 10 µM inhibitor, average of 3 experiments, each in duplicate.

For a further experiment, the target named is T8, STK3 Catalytic Domain (Homo sapiens, UniProt Q13188).
T8 construct: For all of them, we expressed and purified the catalytic domain separately; His-tag; made in house; host or cells: Escherichia coli
T8 sequence (Q13188 27-278 limits assumed): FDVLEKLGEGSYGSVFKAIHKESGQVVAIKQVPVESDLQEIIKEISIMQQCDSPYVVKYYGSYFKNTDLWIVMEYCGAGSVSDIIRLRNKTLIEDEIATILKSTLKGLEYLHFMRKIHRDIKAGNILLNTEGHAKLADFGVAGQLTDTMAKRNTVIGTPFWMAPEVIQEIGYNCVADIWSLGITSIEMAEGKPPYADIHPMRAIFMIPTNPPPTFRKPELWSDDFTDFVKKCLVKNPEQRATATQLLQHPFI
The note with it: 2 µM protein, 10 µM inhibitor, average of 3 experiments, each in duplicate.

Experiment [2] concerns the target SRC Catalytic Domain+SH2+SH3 (Homo sapiens, UniProt P12931). The note with it: 2 µM protein, 10 µM inhibitor, average of 3 experiments, each in duplicate.
Another experiment addresses T9, FES Catalytic Domain+SH2 (Homo sapiens, UniProt P07332).
T9 construct: for 8, we also made a longer version containing one or more additional domains; His-tag; made in house; host or cells: Escherichia coli
The note with it: 2 µM protein, 10 µM inhibitor, average of 3 experiments, each in duplicate.

Another experiment concerns the target T10, CHK2 Catalytic Domain (Homo sapiens, UniProt O96017).
T10 construct: For all of them, we expressed and purified the catalytic domain separately; His-tag; made in house; host or cells: Escherichia coli
The note with it: 2 µM protein, 10 µM inhibitor, average of 3 experiments, each in duplicate.

For a further experiment, the target named is T11, AKT3 Catalytic Domain (Homo sapiens, UniProt Q9Y243).
T11 construct: AKT3 (Q9Y243); CD; His-tag; made in house; host or cells: Escherichia coli
T11 sequence (Q9Y243 122-479): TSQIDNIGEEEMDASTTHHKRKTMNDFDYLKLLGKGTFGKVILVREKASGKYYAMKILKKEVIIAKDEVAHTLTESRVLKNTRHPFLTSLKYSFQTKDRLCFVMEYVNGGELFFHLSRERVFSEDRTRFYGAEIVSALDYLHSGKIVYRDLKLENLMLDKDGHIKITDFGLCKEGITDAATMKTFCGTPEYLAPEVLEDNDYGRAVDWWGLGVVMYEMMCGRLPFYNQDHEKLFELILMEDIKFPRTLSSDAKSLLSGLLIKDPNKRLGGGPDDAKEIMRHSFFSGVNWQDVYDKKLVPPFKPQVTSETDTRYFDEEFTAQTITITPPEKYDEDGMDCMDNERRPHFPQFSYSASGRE
The note with it: 2 µM protein, 10 µM inhibitor, average of 3 experiments, each in duplicate.

A further experiment has as its target T12, PAK4 Catalytic Domain (Homo sapiens, UniProt O96013).
T12 construct: For all of them, we expressed and purified the catalytic domain separately; His-tag; made in house; host or cells: Escherichia coli
The note with it: 2 µM protein, 10 µM inhibitor, average of 3 experiments, each in duplicate.

The target in experiment [3] is T13, PAK4 Catalytic Domain+PBD (Homo sapiens, UniProt O96013).
T13 construct: for 8, we also made a longer version containing one or more additional domains; His-tag; made in house; host or cells: Escherichia coli
T13 sequence (O96013 whole entry, the tested form may be a part): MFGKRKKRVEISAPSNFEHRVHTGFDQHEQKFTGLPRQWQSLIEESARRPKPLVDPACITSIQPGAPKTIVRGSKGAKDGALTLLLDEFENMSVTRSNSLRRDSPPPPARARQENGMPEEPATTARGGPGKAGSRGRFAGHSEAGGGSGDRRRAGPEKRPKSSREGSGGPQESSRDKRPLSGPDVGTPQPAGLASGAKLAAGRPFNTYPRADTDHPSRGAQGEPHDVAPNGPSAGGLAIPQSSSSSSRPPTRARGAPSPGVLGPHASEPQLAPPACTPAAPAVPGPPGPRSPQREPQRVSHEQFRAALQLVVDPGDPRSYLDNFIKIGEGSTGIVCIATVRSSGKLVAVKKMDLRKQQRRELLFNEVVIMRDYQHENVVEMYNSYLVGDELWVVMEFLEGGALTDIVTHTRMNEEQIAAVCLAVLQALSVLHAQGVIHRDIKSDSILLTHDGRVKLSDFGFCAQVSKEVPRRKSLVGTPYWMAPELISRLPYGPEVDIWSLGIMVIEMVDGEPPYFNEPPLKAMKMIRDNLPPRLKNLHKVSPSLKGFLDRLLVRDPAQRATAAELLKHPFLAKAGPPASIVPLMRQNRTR
Conditions: 2 µM protein, 10 µM inhibitor, average of 3 experiments, each in duplicate.

T9 sequence (P07332 448-822 limits assumed): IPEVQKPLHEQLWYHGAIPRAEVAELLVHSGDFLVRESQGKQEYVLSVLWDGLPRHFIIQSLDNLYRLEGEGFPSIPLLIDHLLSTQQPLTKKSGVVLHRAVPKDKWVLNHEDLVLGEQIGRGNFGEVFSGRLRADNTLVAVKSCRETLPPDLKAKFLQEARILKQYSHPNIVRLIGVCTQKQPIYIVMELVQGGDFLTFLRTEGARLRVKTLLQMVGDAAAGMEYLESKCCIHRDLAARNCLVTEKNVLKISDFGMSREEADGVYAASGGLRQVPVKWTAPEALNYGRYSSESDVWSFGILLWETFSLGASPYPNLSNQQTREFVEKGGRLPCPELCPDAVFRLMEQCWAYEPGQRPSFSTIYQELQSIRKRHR
T4 sequence (Q9P286 449-700 limits assumed): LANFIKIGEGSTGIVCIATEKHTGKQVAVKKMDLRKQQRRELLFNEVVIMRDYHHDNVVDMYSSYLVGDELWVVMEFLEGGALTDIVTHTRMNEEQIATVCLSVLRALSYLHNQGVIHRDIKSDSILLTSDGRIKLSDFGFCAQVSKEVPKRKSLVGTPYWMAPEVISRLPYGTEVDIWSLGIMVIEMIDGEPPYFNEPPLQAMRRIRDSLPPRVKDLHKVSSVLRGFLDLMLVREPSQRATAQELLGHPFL
T12 sequence (O96013 321-572 limits assumed): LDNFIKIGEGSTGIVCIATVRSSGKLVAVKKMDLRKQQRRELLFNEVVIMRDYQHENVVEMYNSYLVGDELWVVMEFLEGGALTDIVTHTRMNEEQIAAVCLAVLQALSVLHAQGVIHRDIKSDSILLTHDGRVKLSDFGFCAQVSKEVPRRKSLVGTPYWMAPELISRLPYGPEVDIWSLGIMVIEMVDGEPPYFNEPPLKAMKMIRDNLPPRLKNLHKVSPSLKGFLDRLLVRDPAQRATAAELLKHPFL
T10 sequence (O96017 220-486 limits assumed): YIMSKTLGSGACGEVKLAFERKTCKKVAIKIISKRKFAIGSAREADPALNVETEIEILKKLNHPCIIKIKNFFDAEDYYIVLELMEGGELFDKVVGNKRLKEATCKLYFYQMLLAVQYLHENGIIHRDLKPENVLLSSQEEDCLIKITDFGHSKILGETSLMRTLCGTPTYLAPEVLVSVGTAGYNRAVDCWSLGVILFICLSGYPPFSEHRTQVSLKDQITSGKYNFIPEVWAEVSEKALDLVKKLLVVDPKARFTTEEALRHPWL
T5 sequence (P07332 561-822 limits assumed): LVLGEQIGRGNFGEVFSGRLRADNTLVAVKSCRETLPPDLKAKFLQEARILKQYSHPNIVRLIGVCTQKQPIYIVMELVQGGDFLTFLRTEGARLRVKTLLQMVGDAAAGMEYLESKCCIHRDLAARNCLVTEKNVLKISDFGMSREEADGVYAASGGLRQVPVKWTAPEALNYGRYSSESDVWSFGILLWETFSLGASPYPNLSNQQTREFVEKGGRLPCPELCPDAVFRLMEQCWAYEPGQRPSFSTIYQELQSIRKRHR

Regarding `c1cc(-c2cnn3cc(-c4ccc(OCCN5CCCCC5)cc4)cnc23)ccn1` [AMPK Inhibitor, Compound C], the “Melting temperature (Tm) shift” value at DMPK Catalytic Domain was 1.5 degrees Celcius; in [1], 0.4 degrees Celcius; on SRC Catalytic Domain, 0.5 degrees Celcius; on CDK2 + Cyclin A, 1.0 degrees Celcius; at PAK7 Catalytic Domain it was 0.5 degrees Celcius; at FES Catalytic Domain, 1.2 degrees Celcius. Further, the “Melting temperature (Tm) shift” value at CDK2 + Cyclin E is recorded as 0.5 degrees Celcius; at FAK2 Catalytic Domain it was 0.1 degrees Celcius; at STK3 Catalytic Domain it was 0.3 degrees Celcius; in [2], 0.6 degrees Celcius; at FES Catalytic Domain+SH2 it was 0.4 degrees Celcius; on CHK2 Catalytic Domain, 1.1 degrees Celcius. Also, the “Melting temperature (Tm) shift” value on AKT3 Catalytic Domain was determined as 0.3 degrees Celcius; on PAK4 Catalytic Domain, 0.7 degrees Celcius; in experiment [3], 0.8 degrees Celcius.

For `O=C1NC(=O)C(=Cc2cccc(C(F)(F)F)c2)S1` [PIM1/2 Kinase Inhibitor V], the “Melting temperature (Tm) shift” value stood at 0.1 degrees Celcius at DMPK Catalytic Domain; 0.4 degrees Celcius in experiment [1]; 0.1 degrees Celcius at SRC Catalytic Domain; 0.3 degrees Celcius at CDK2 + Cyclin A; 0.1 degrees Celcius at PAK7 Catalytic Domain; 0.5 degrees Celcius at FES Catalytic Domain. The “Melting temperature (Tm) shift” value at CDK2 + Cyclin E was 0.2 degrees Celcius; on FAK2 Catalytic Domain, 0.2 degrees Celcius; at STK3 Catalytic Domain, 0.2 degrees Celcius; in experiment [2], 0.2 degrees Celcius; at FES Catalytic Domain+SH2, 0.4 degrees Celcius; on CHK2 Catalytic Domain, 0.5 degrees Celcius. In addition, the “Melting temperature (Tm) shift” value amounted to 0.1 degrees Celcius on AKT3 Catalytic Domain, 0.2 degrees Celcius at PAK4 Catalytic Domain and 0.4 degrees Celcius in experiment [3].

As for DNA-PK Inhibitor V, the “Melting temperature (Tm) shift” value on DMPK Catalytic Domain is 0.6 degrees Celcius; in experiment [1] it was 0.5 degrees Celcius; on SRC Catalytic Domain, 0.2 degrees Celcius; on CDK2 + Cyclin A it was 0.0 degrees Celcius; at PAK7 Catalytic Domain it was 0.0 degrees Celcius; at FES Catalytic Domain, 0.1 degrees Celcius. The “Melting temperature (Tm) shift” value on CDK2 + Cyclin E came out at 0.2 degrees Celcius; at FAK2 Catalytic Domain, 0.3 degrees Celcius; at STK3 Catalytic Domain it was 0.0 degrees Celcius; in [2] it was 0.0 degrees Celcius; on FES Catalytic Domain+SH2, 0.3 degrees Celcius; at CHK2 Catalytic Domain it was 0.2 degrees Celcius. The “Melting temperature (Tm) shift” value is recorded as 0.1 degrees Celcius at AKT3 Catalytic Domain, 0.4 degrees Celcius at PAK4 Catalytic Domain and 0.5 degrees Celcius in experiment [3].

As for `O=C1Nc2ccc3ncsc3c2/C1=C/c1cnc[nH]1` [PKR Inhibitor], the “Melting temperature (Tm) shift” value on DMPK Catalytic Domain stood at 0.8 degrees Celcius; in experiment [1], 7.0 degrees Celcius; on SRC Catalytic Domain it was 0.7 degrees Celcius; at CDK2 + Cyclin A, 4.4 degrees Celcius; on PAK7 Catalytic Domain it was 1.9 degrees Celcius; on FES Catalytic Domain, 3.2 degrees Celcius. Moreover, the “Melting temperature (Tm) shift” value on CDK2 + Cyclin E came out at 4.3 degrees Celcius; on FAK2 Catalytic Domain it was 1.1 degrees Celcius; on STK3 Catalytic Domain, 4.9 degrees Celcius; in experiment [2], 0.3 degrees Celcius; at FES Catalytic Domain+SH2, 0.7 degrees Celcius; on CHK2 Catalytic Domain it was 4.0 degrees Celcius. Moreover, the “Melting temperature (Tm) shift” value on AKT3 Catalytic Domain was 0.3 degrees Celcius; at PAK4 Catalytic Domain, 1.9 degrees Celcius; in [3] it was 1.8 degrees Celcius.

For `O=C1Cc2c([nH]c3ccc(Br)cc23)-c2ccccc2N1` [Kenpaullone], the “Melting temperature (Tm) shift” value on DMPK Catalytic Domain amounted to 1.9 degrees Celcius; in experiment [1] it was 1.5 degrees Celcius; at SRC Catalytic Domain, 0.4 degrees Celcius; at CDK2 + Cyclin A, 0.4 degrees Celcius; at PAK7 Catalytic Domain it was 0.7 degrees Celcius; on FES Catalytic Domain it was 0.4 degrees Celcius. Besides, the “Melting temperature (Tm) shift” value on CDK2 + Cyclin E came out at 0.3 degrees Celcius; at FAK2 Catalytic Domain it was 0.3 degrees Celcius; on STK3 Catalytic Domain it was 0.7 degrees Celcius; in experiment [2] it was 0.2 degrees Celcius; at FES Catalytic Domain+SH2, 0.0 degrees Celcius; at CHK2 Catalytic Domain, 3.4 degrees Celcius. For the same molecule, the “Melting temperature (Tm) shift” value at AKT3 Catalytic Domain was 0.0 degrees Celcius; on PAK4 Catalytic Domain, 1.4 degrees Celcius; in [3], 3.6 degrees Celcius.

Consider `CCCCc1c(-c2ccc(O)cc2)[nH]c2nccnc12` [Aloisine A, RP107, Aloisine A], for which the “Melting temperature (Tm) shift” value worked out at 1.4 degrees Celcius at DMPK Catalytic Domain; 1.4 degrees Celcius in [1]; 1.5 degrees Celcius at SRC Catalytic Domain; 2.5 degrees Celcius at CDK2 + Cyclin A; 1.2 degrees Celcius on PAK7 Catalytic Domain; 0.9 degrees Celcius at FES Catalytic Domain. For the same molecule, the “Melting temperature (Tm) shift” value is reported as 1.4 degrees Celcius at CDK2 + Cyclin E; 1.2 degrees Celcius on FAK2 Catalytic Domain; 1.6 degrees Celcius at STK3 Catalytic Domain; 1.1 degrees Celcius in experiment [2]; 0.5 degrees Celcius on FES Catalytic Domain+SH2; 2.7 degrees Celcius on CHK2 Catalytic Domain. Further, the “Melting temperature (Tm) shift” value at AKT3 Catalytic Domain is on record as 0.1 degrees Celcius; at PAK4 Catalytic Domain, 1.3 degrees Celcius; in experiment [3] it was 1.3 degrees Celcius.

(Values after article PMC4051630, “A Comparison of Protein Kinases Inhibitor Screening Methods Using Both Enzymatic Activity and Binding Affinity Determination” (PLoS ONE, 2014).)
